According to patent US8067369B2, “Protection of the retina against laser injury by NAP and related peptides” (Ramot at Tel-Aviv University, priority 2006, dated 2011):
One block for each compound: values may come before it. No end group written: not given here.

Experiments:
closed head injury = conditions: mice; cited from earlier work
[1] = tested on: Alzheimer's disease pathology; conditions: in vivo; cited from earlier work
[2] = tested on: cells of the central nervous system (CNS); conditions: cell cultures; cited from earlier work
[3] = rabbit, in vivo
Procedure: Three albino rabbits (each three months old) were used. One animal at a time was anesthetized using Ketamin (40 mg/kg) and Xylazine (8 mg/kg). After the animals were fully anesthetized, a drop of radioactive drug—^14C-NAPVSIPQ (SEQ ID NO:24) (50 microliter; 1.5×10^6 dpm; 37 mCi/mmol; 1 microCi=2×10^6 dpm) was applied once by a micropipette to each eye, i.e., eye drops. The eye drops were prepared to include 2.7 microliter of the ^14C-NAP stock in 400 microliter saline (0.9% NaCl). 10 microliters of this solution were counted to yield 3×10^5 dpm. After application of the drug, eye lids were held gently closed for 10 seconds.
The aqueous humor is the liquid that is found in-between the cornea and lens. Ten microliter samples of aqueous humor were taken from the rabbits' eyes using a tuberculin syringe with a 30 gauge needle.
The vitreous humor is found between the retina and the lens. Vitreous samples were obtained through the pars plana with a 25 gauge needle attached to a Tuberculin syringe. Ten microliter samples of vitreous humor were taken from each eye at designated times as outlined in the attached graphs up to 130 minutes after the initial eye drop application Systemic samples were taken from blood. For results see, e.g., FIGS. 4-6.
The animals were anesthetized for the duration of the […] to avoid animal suffering. A boost of anesthetics was injected about ninety minutes after the initiation of the experiment.

fetal alcohol syndrome = conditions: in vivo; cited from earlier work
ischemic injury = conditions: after ischemic injury; cited from earlier work
[4] = tested on: laser-induced retinal damage; assay: Argon laser retinal lesions in rats, histopathologic and morphometric evaluation; type: in vivo, rat
Procedure: Pigmented DA rats (strain DA/Ola/Hsd, Harlan OCAL Ltd., Blackthorn Bicester Oxon, England; raised in Tel-Aviv University animal house), 90 days old, were used for the experiments. The posterior segment of the eye of this strain has a uniform pigmentation, making it particularly useful for retinal laser injury production. The animals were fed ad libitum with a normal laboratory diet and maintained on a 12-h light/dark cycle. They were anesthetized by intraperitoneal injections of ketamine (40 mg/kg) and xylasine (8 mg/kg) before each experimental procedure.
After dilatation of the pupil with sterile drops of Topicamid 0.5% (Midramid, Fisher), a contact lens, specially crafted to fit a rat eye for retinal laser irradiation, was attached to the cornea with 2.5% hydroxypropyl methylcellulose. Six laser retinal lesions were produced in each eye of each of the anesthetized (ketamine (40 mg/kg) and xylasine (8 mg/kg)) rats by argon laser (Novus 2000 Coherent, CA) two disc diameters away from the optic disc. The laser beam characteristics were 514 & […], 200 μm, 0.1 W, 0.05 second. These laser settings were found in previous studies to result in lesions of a uniform size and configuration, involving mainly the outer retinal layers.
The animals of the experimental groups I and III underwent systemic intravenous injection of NAP or saline immediately after the laser photocoagulation, NAP was injected in the amount of 60 μg per animal (about 280-300 μg/kg) in a volume of 0.5 ml of saline. The animals of the control group got an injection of 0.5 ml of saline. The injections were performed in the femoral vein of the right leg of each animal after the vessel was uncovered and isolated in situ. The wound was sewed up after the injection with surgical silk.
The animals of the experimental groups II and IV underwent NAP or saline injection immediately after the laser photocoagulation. Each eye of each anesthetized rat was punctured with a 30-gauge needle of a Hamilton syringe at the temporal posterior part of the retina. Then, 5 μl of NAP saline solution at a concentration of 2.5 pg/μl was injected into the vitreous body of the experimental group. The same amount of saline (5 μl) was injected intravitreally in the animals of the control groups. All of the procedures were controlled visually via a surgical microscope.
The effect of treatment in all groups was evaluated at three time points: 3, 20, and 60 days after the primary injury (n=6 at each time point in each group). The animals were euthanized by a lethal dose of pentobarbitone and their eyes enucleated and fixed in 2% glutaraldehyde. Using a surgical microscope, the posterior segment of the fixed eye was dissected into tissue samples, each incorporating one retinal laser lesion. The samples were embedded in epoxy resin and the blocks sectioned serially (1 μm) with an ultramicrotome and stained with toluidine blue.
The microscopic images were digitalized by SmartCapture VP software (Digital Scientific, USA) and enhanced by IPLab software (Scanalytics, USA). Then the images were segmented for photoreceptor clarification by IPLab software (Scanalytics, USA) and the photoreceptors were counted.
Morphometric measurements were performed on each lesion in order to evaluate the severity of the argon laser injury. The borders of the lesion area were established at the most distant point from the middle of the lesion where the cytoarchitecture changes in the pigment epithelium, outer nuclear, inner nuclear, or ganglion cell layers of the retina could be distinguished. The measurements performed were: 1) Diameter of the whole lesion, 2) Cell count in the outer nuclear layer of the whole lesion area, and 3) Cell count in the outer nuclear layer at the 100 μm center of the lesion
In order to evaluate the extent of photoreceptor cell loss, results were compared to the cell density in the intact regions of the outer nuclear retinal layer located 100 μm peripherally from the edges of the lesion. […]

anxiety = conditions: long term nasal application; cited from earlier work
normal aging rats = conditions: intranasal administration; cited from earlier work
[5] = tested on: neurons of the central nervous system; conditions: in-vitro assays and in vivo disease models; cited from earlier work

maximal incorporation into vitreous samples [3]: 60 dpm/10 microliters
peak of radioactive incorporation into the aqueous humor [3]: 150 dpm/10 microliter
radioactivity at the aqueous humor at the 10 minute point [3]: ~60 dpm/10 microliters
systemic exposure (blood radioactivity) [3]: 1-12 dpm
time of maximal incorporation into vitreous samples [3]: 10 min
time of peak radioactive incorporation into the aqueous humor [3]: 50 min
time the aqueous humor peak was maintained [3]: 70 min
Compound: CC[C@H](C)[C@H](NC(=O)[C@H](CO)NC(=O)[C@@H](NC(=O)[C@@H]1CCCN1C(=O)[C@H](C)NC(=O)[C@@H](N)CC(N)=O)C(C)C)C(=O)N1CCC[C@H]1C(=O)N[C@@H](CCC(N)=O)C(=O)O [NAP, Asn-Ala-Pro-Val-Ser-Ile-Pro-Gln]
damage caused by closed head injury (closed head injury): reducing damage
effect in Alzheimer's disease pathology models [1]: protective
concentration showing neuroprotective activity [2]: femtomolar concentrations
fetal demise (fetal alcohol syndrome): reducing
growth restrictions (fetal alcohol syndrome): reducing
infarct volume (ischemic injury): reduced
motor function deficits (ischemic injury): reduced
neuroprotective effect against laser-induced retinal damage ([4]; intravitreal NAP 5 μl of 2.5 pg/μl, 3 days after the laser session): significant neuroprotective effect
neuroprotective effect against laser-induced retinal damage ([4]; intravitreal NAP, 20 and 60 days after the laser session): not after 20 and 60 days
mean lesion diameter ([4]; intravitreal NAP, 3 days after the laser injury): reduced
mean lesion diameter ([4]; intravitreal NAP, after 20 days, vs control groups): greater than in control groups
photoreceptor loss (morphological evaluation of the lesions) ([4]; systemic intravenous NAP 60 μg per animal immediately after laser, 3 and 20 days after injury, vs saline control): attenuation
lesion diameter (morphological evaluation of the lesions) ([4]; systemic intravenous NAP 60 μg per animal, 3 and 20 days after injury, vs saline control): attenuation
number of cells lost, whole and central areas of lesion ([4]; systemic intravenous NAP, 3, 20 and 60 days after injury): reduced
diameter of the lesion ([4]; systemic intravenous NAP, 20 and 60 days after the injury): significant ameliorative effects (P<0.01)
neuroprotective effect (photoreceptor loss and lesion diameter) ([4]; systemic intravenous NAP, 60 days after the laser session): also manifested, although to a lesser extent
significance of reduction in number of cells lost ([4]; systemic intravenous NAP, sixty days after photocoagulation only): statistically significant (P<0.01)
anxiety (anxiety): decreased anxiety
performance in the Morris water maze (normal aging rats): improved performance

Compound: SALLRSIPA
survival of neurons in response to various insults [5]: keep neurons of the central nervous system alive
